Columns and labels:
Assay in all cases: relative viability (nuclei count vs DMSO), 5 days (fraction); higher = more cells survive
Obatoclax + Palbociclib = compound: COC1=CC(c2cc3ccccc3[nH]2)=N/C1=C\c1[nH]c(C)cc1C [Obatoclax] + CC(=O)c1c(C)c2cnc(Nc3ccc(N4CCNCC4)cn3)nc2n(C2CCCC2)c1=O [Palbociclib] (partner 0.5 µM)
Outline: (§1)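 Relative viability equals treated-well nuclei counts divided by vehicle-well nuclei counts. Counts came from 4× images of lung cancer cell lines grown in 1536-well plates for 5 days after pin-tool dosing on the day after seeding. Dosing used one drug alone or a fixed anchor-drug dose plus five library-drug doses (not always all listed) in √10 steps, and values are medians of duplicate plates.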

Obatoclax + Tozasertib = compound: COC1=CC(c2cc3ccccc3[nH]2)=N/C1=C\c1[nH]c(C)cc1C [Obatoclax] + Cc1cc(Nc2cc(N3CCN(C)CC3)nc(Sc3ccc(NC(=O)C4CC4)cc3)n2)n[nH]1 [Tozasertib] (partner 0.1 µM)
Outline: as §1

Obatoclax + Alpelisib = compound: COC1=CC(c2cc3ccccc3[nH]2)=N/C1=C\c1[nH]c(C)cc1C [Obatoclax] + Cc1nc(NC(=O)N2CCC[C@H]2C(N)=O)sc1-c1ccnc(C(C)(C)C(F)(F)F)c1 [Alpelisib] (partner 2 µM)
Outline: as §1

Bortezomib + Olaparib = compound: CC(C)C[C@H](NC(=O)[C@H](Cc1ccccc1)NC(=O)c1cnccn1)B(O)O [Bortezomib] + O=C(c1cc(Cc2n[nH]c(=O)c3ccccc23)ccc1F)N1CCN(C(=O)C2CC2)CC1 [Olaparib] (partner 8 µM)
Outline: as §1

Cell Line	relative viability (Obatoclax + Palbociclib; first compound 0.01 µM)	relative viability (Obatoclax + Palbociclib; first compound 0.03162 µM)	relative viability (Obatoclax + Palbociclib; first compound 0.1 µM)	relative viability (Obatoclax + Palbociclib; first compound 0.3162 µM)	relative viability (Obatoclax + Palbociclib; first compound 1 µM)	relative viability (Obatoclax + Tozasertib; first compound 0.01 µM)	relative viability (Obatoclax + Tozasertib; first compound 0.03162 µM)	relative viability (Obatoclax + Tozasertib; first compound 0.1 µM)	relative viability (Obatoclax + Tozasertib; first compound 0.3162 µM)	relative viability (Obatoclax + Tozasertib; first compound 1 µM)	relative viability (Obatoclax + Alpelisib; first compound 0.01 µM)	relative viability (Obatoclax + Alpelisib; first compound 0.03162 µM)	relative viability (Obatoclax + Alpelisib; first compound 0.1 µM)	relative viability (Obatoclax + Alpelisib; first compound 0.3162 µM)	relative viability (Obatoclax + Alpelisib; first compound 1 µM)	relative viability (Bortezomib + Olaparib; first compound 0.0002 µM)	relative viability (Bortezomib + Olaparib; first compound 0.000632 µM)	relative viability (Bortezomib + Olaparib; first compound 0.002 µM)	relative viability (Bortezomib + Olaparib; first compound 0.006325 µM)	relative viability (Bortezomib + Olaparib; first compound 0.02 µM)
HARA	0.314	0.224	0.285	0.242	0.216	0.101	0.154	0.146	0.124	0.132	0.942	0.529	0.916	0.802	0.78	0.973	0.809	0.872	0.0712	0.0979
HCC-15	0.672	0.728	0.695	0.752	0.609	0.371	0.35	0.463	0.456	0.287	0.844	0.777	0.827	0.856	0.609	0.763	0.734	0.662	0.108	0.0913
HCC-44	0.922	0.916	0.967	0.993	0.94	0.907	1.03	0.556	0.376	0.196	0.84	0.706	0.801	0.607	0.21	0.942	0.986	0.99	0.715	0.315
HCC-78	0.438	0.45	0.506	0.479	0.457	0.338	0.404	0.664	0.399	0.344	0.314	0.35		0.26	0.321	0.928	0.662	0.398	0.233	0.258
HCC-366	0.401	0.34	0.311	0.304	0.203	0.1	0.117	0.134	0.0528	0.0652	0.382	0.363	0.366	0.396	0.233	0.358	0.376	0.455	0.0607	0.0196
HCC-827	0.475	0.436	0.531	0.407	0.482	0.389	0.418	0.44	0.412	0.411	0.949	0.931	0.957	0.984	0.964	0.725	0.611	0.357	0.14	0.138
IA-LM											0.843	0.743	0.612	0.327	0.0686	0.765	0.824	0.791	0.0665	0.0149
NCI-H522	1.05	1.04	1.03	1.02	0.892	0.656	0.429	0.605	0.545	0.539						0.62	0.618	0.744	0.347	0.313
NCI-H596						0.911	0.915	0.837	0.564	0.597	0.481	0.437	0.469	0.402	0.401	0.723	0.709	0.445	0.186	0.187
NCI-H1299											1.01	1.1	0.985	1.04	1	0.98	0.917	1.03	0.239	0.103
NCI-H1563											0.917	0.922	0.934	0.867	0.791					
NCI-H1623						0.428	0.422	0.426	0.451	0.38										
NCI-H1648	0.303	0.258	0.28	0.275	0.246	0.515	0.499	1.01	0.465	0.361						0.721	0.822	0.799	0.238	0.267
NCI-H1650	0.344	0.407	0.316	0.24	0.145	0.417	0.358	0.425	0.275	0.266						0.607	0.757	0.165	0.12	0.157
NCI-H1703											0.41	0.344	0.412	0.321	0.276	0.417	0.318	0.123	0.0785	0.0739
NCI-H1792	0.626	0.609		0.625	0.705						0.746	0.658		0.638	0.781	0.415	0.313	0.531	0.062	0.046
NCI-H2342	0.506	0.524	0.582	0.501	0.487	0.516	0.594	0.656	0.587	0.633						0.514	0.503	0.382	0.473	0.273
SW 900	0.619	0.543	0.605	0.475	0.363	0.67	0.571	0.499	0.33	0.281						0.855	0.63	0.213	0.148	0.173
